Data: US20230279020A9, “CARM1 INHIBITORS AND USES THEREOF” (Epizyme, Inc., priority 2013, published 2023)
pIC50: −log10 of the molar value.

Target: Human CARM1 (PRMT4) (Homo sapiens (Human), UniProt Q86X55)
Assay: CARM1 enzyme assay on peptide substrate (3H-SAM Flashplate)
Conditions: Biochemical potencies, classification codes; read-out: Biochem IC50

Sequence of Human CARM1 (PRMT4) (Q86X55 other isoform, or with tags, fused parts or gaps isoform Q86X55-1): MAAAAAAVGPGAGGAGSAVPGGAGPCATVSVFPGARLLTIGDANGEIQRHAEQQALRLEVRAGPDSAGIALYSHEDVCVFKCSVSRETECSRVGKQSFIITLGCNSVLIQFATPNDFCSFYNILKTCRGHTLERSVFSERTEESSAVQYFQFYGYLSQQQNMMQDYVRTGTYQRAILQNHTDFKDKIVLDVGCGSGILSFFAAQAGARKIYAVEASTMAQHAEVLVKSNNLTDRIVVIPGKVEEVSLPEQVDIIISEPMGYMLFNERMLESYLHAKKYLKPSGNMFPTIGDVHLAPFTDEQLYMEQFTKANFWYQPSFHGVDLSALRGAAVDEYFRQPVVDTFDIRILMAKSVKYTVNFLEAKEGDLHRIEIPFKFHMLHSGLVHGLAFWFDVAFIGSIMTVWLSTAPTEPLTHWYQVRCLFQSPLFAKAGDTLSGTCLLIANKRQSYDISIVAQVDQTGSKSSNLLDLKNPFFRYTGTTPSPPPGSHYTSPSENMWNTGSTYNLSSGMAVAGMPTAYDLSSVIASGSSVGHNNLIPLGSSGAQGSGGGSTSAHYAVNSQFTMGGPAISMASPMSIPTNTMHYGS

Structure (SMILES)	pIC50
CNC[C@@H](O)COc1ccc(Cl)c(-c2nc(N[C@H]3CCN(C4CC4)[C@@H](C)C3)c(C)c(-c3c(C)noc3C)n2)c1 [Example 170-3]	> 7.00
CNCC(O)COc1cccc(-c2nc(NCC3CN(C)CCO3)c(C)c(-c3c(C)noc3C)n2)c1 (centres unmarked) [Example 171-1a]	> 7.00
Cc1noc(C)c1-c1nc(-c2cc(OC[C@H](O)CN(C)C)ccc2Cl)nc(N[C@H]2CCN(C3CC3)[C@@H](C)C2)c1C [Example 171-3]	> 7.00
CCOC(=O)N1CCC(N(C)c2cc(-c3c(C)noc3C)nc(-c3cccc(OCC(O)CNC)c3)n2)CC1 (centres unmarked) [Example 172-1a]	> 7.00
CNC[C@@H](O)COc1ccc(Cl)c(-c2nc(N[C@H]3C[C@@H](C)O[C@@H](C)C3)c(C)c(-c3c(C)noc3C)n2)c1 [Example 172-3]	> 7.00
CNC[C@@H](O)COc1ccc(Cl)c(-c2nc(N[C@H]3C[C@@H](C)O[C@@H](C)C3)c(Cl)c(-c3c(C)noc3C)n2)c1 [Example 173-3]	> 7.00
CNCC(O)COc1cccc(-c2nc(-c3c(C)noc3C)cc(N3CCN(CC(F)F)[C@H](C)C3)n2)c1 (some centres unmarked) [Example 174-1a]	> 7.00
CNC[C@@H](O)COc1ccc(Cl)c(-c2nc(-c3c(C)noc3C)c(C)c(N3CCc4ccncc43)n2)c1 [Example 174-3]	> 7.00
CNCC(O)COc1cccc(-c2nc(-c3c(C)noc3C)cc(N3CCN(C)[C@H](C)C3)n2)c1 (some centres unmarked) [Example 175-1a]	> 7.00
CNC[C@@H](O)COc1ccc(Cl)c(-c2nc(-c3c(C)noc3C)c(C)c(N3CC4(CCN(C(=O)OC)C4)C3)n2)c1 [Example 175-3]	> 7.00
CNCC(O)COc1cccc(-c2nc(-c3c(C)noc3C)c(C)c(N3CCO[C@@H](CN(C)C(=O)N(C)C)C3)n2)c1 (some centres unmarked) [Example 176-1a]	> 7.00
CNC[C@@H](O)COc1ccc(Cl)c(-c2nc(-c3c(C)noc3C)c(C)c(N3CC4(CCN(C5CC5)C4)C3)n2)c1 [Example 176-3]	> 7.00
CNCC(O)COc1cccc(-c2nc(-c3c(C)noc3C)c(C)c(N3CCC[C@@H](NC)C3)n2)c1 (some centres unmarked) [Example 177-1a]	> 7.00
CNC[C@@H](O)COc1ccc(Cl)c(-c2nc(-c3c(C)noc3C)c(C)c(N3CCC4(CN(C(=O)OC)C4)C3)n2)c1 [Example 177-3]	> 7.00
CC[C@H]1CN(c2nc(-c3cccc(OCC(O)CNC)c3)nc(-c3c(C)noc3C)c2C)CCN1C1CC1 (some centres unmarked) [Example 178-1a]	> 7.00
CNC[C@@H](O)COc1ccc(Cl)c(-c2nc(-c3c(C)noc3C)c(C)c(N3CCC4(C3)CN(C3CC3)C4)n2)c1 [Example 178-3]	> 7.00
CNCC(O)COc1cccc(-c2nc(-c3c(C)noc3C)c(C)c(N3CCC4(CC3)CN(S(C)(=O)=O)C4)n2)c1 (centres unmarked) [Example 179-1a]	> 7.00
CNC[C@@H](O)COc1ccc(Cl)c(-c2nc(N[C@@H]3CO[C@H](C)C3)c(C)c(-c3c(C)noc3C)n2)c1 [Example 179-3]	> 7.00
CNC[C@@H](O)COc1ccc(Cl)c(-c2nc(N[C@@H]3CO[C@H](C)C3)c(Cl)c(-c3c(C)noc3C)n2)c1 [Example 180-3]	> 7.00
CNCC(O)COc1cccc(-c2nc(OC3CCOCC3)c(C)c(-c3c(C)noc3C)n2)c1 (centres unmarked) [Example 181-1a]	> 7.00
CNC[C@@H](O)COc1ccc(Cl)c(-c2nc(N[C@@H]3CO[C@@H](C)C3)c(Cl)c(-c3c(C)noc3C)n2)c1 [Example 181-3]	> 7.00
CNCC(O)COc1cccc(-c2nc(OCC3CCOCC3)c(C)c(-c3c(C)noc3C)n2)c1 (centres unmarked) [Example 182-1a]	> 7.00

Structure (SMILES)	pIC50
CNC[C@@H](O)COc1ccc(Cl)c(-c2nc(N[C@@H]3C[C@@H](C)O[C@@H](C)C3)c(C)c(-c3c(C)noc3C)n2)c1 [Example 182-3]	> 7.00
CNC[C@@H](O)COc1cccc(-c2nc(NCC3CCOCC3)c(C)c(-c3c(C)noc3C)n2)c1 [Example 183-1a]	> 7.00
CNC[C@@H](O)COc1ccc(Cl)c(-c2nc(N[C@@H]3C[C@@H](C)O[C@@H](C)C3)c(Cl)c(-c3c(C)noc3C)n2)c1 [Example 183-3]	> 7.00
CNCC(O)COc1cccc(-c2nc(NCC3CCN(C(=O)OC)CC3)c(C)c(-c3c(C)noc3C)n2)c1 (centres unmarked) [Example 184-1a]	> 7.00
CNC[C@@H](O)COc1ccc(Cl)c(-c2nc(-c3c(C)noc3C)c(C)c(N3CC(F)(F)C3)n2)c1 [Example 184-3]	> 7.00
CNCC(O)COc1cccc(-c2nc(NC3CCN(C4CC4)CC3)c(C)c(-c3c(C)noc3C)n2)c1 (centres unmarked) [Example 185-1a]	> 7.00
CNC[C@@H](O)COc1ccc(F)c(-c2nc(-c3c(C)noc3C)c(C)c(N3Cc4cc(Cl)cnc4C3)n2)c1 [Example 185-3]	> 7.00
CNCC(O)COc1cccc(-c2nc(NC3CCN(C(=O)OC)C3)c(C)c(-c3c(C)noc3C)n2)c1 (centres unmarked) [Example 186-1a]	> 7.00
CNC[C@@H](O)COc1ccc(Cl)c(-c2nc(-c3c(C)noc3C)c(C)c(N3C[C@H]4COC[C@H]4C3)n2)c1 [Example 186-3]	> 7.00
CNCC(O)COc1ccc(Cl)c(-c2nc(NC3CCN(C(=O)OC)CC3)c(Cl)c(-c3c(C)noc3C)n2)c1 (centres unmarked) [Example 187-1a]	> 7.00
CNC[C@@H](O)COc1ccc(Cl)c(-c2nc(-c3c(C)noc3C)c(C)c(N3CCOC3=O)n2)c1 [Example 187-3]	> 7.00
CNCC(O)COc1cccc(-c2nc(NC3CCN(CC(F)F)CC3)c(C)c(-c3c(C)noc3C)n2)c1 (centres unmarked) [Example 188-1a]	> 7.00
CNC[C@@H](O)COc1ccc(Cl)c(-c2nc(NC3CC(F)C3)c(C)c(-c3c(C)noc3C)n2)c1 (some centres unmarked) [Example 188-3]	> 7.00
CCOC(=O)N1CCC(Nc2nc(-c3cccc(OCC(O)CNC)c3)nc(-c3c(C)noc3C)c2C)CC1 (centres unmarked) [Example 189-1a]	> 7.00
CNC[C@@H](O)COc1ccc(Cl)c(-c2nc(NC3CC(F)(F)C3)c(C)c(-c3c(C)noc3C)n2)c1 [Example 189-3]	> 7.00
CCOC(=O)N1CCCC(Nc2nc(-c3cccc(OCC(O)CNC)c3)nc(-c3c(C)noc3C)c2C)C1 (centres unmarked) [Example 190-1a]	> 7.00
CNC[C@@H](O)COc1ccc(Cl)c(-c2nc(-c3c(C)noc3C)c(C)c(N3Cc4cncnc4C3)n2)c1 [Example 190-3]	> 7.00
CCOC(=O)N1CCC(CNc2nc(-c3cccc(OCC(O)CNC)c3)nc(-c3c(C)noc3C)c2C)CC1 (centres unmarked) [Example 191-1a]	> 7.00
CCO[C@@H]1CCC[C@H]1Nc1nc(-c2cc(OC[C@H](O)CNC)ccc2F)nc(-c2c(C)noc2C)c1C [Example 191-3]	> 7.00
CCS(=O)(=O)N1CCC(CNc2nc(-c3cccc(OCC(O)CNC)c3)nc(-c3c(C)noc3C)c2C)CC1 (centres unmarked) [Example 192-1a]	> 7.00
CNC[C@@H](O)COc1ccc(Cl)c(-c2nc(-c3c(C)noc3C)c(C)c(N3Cc4nc(C)sc4C3)n2)c1 [Example 192-3]	> 7.00
CNCC(O)COc1cccc(-c2nc(NCC3CCCN(CC(F)F)C3)c(C)c(-c3c(C)noc3C)n2)c1 (centres unmarked) [Example 193-1a]	> 7.00

Structure (SMILES)	pIC50
CCOC(=O)N1CCCC(CNc2nc(-c3cccc(OCC(O)CNC)c3)nc(-c3c(C)noc3C)c2C)C1 (centres unmarked) [Example 194-1a]	> 7.00
CNC[C@@H](O)COc1ccc(Cl)c(-c2nc(N[C@@H]3CCN(C)C[C@@H]3F)c(C)c(-c3c(C)noc3C)n2)c1 [Example 194-3]	> 7.00
CNCC(O)COc1cccc(-c2nc(NC3CCN(CC(F)F)C3)c(C)c(-c3c(C)noc3C)n2)c1 (centres unmarked) [Example 195-1a]	> 7.00
CNC[C@@H](O)COc1ccc(Cl)c(-c2nc(N[C@H]3CCN(C4CC4)C[C@H]3F)c(Cl)c(-c3c(C)noc3C)n2)c1 [Example 195-3]	> 7.00
CCOC(=O)N1CCC(Nc2nc(-c3cccc(OCC(O)CNC)c3)nc(-c3c(C)noc3C)c2C)C1 (centres unmarked) [Example 196-1a]	> 7.00
CNC[C@@H](O)COc1ccc(Cl)c(-c2nc(N[C@H]3CCO[C@H](C)C3)c(C)c(-c3c(C)noc3C)n2)c1 [Example 196-3]	> 7.00
CCS(=O)(=O)N1CCC(Nc2nc(-c3cccc(OCC(O)CNC)c3)nc(-c3c(C)noc3C)c2C)C1 (centres unmarked) [Example 197-1a]	> 7.00
CNC[C@@H](O)COc1ccc(Cl)c(-c2nc(N[C@H]3CCO[C@H](C)C3)c(Cl)c(-c3c(C)noc3C)n2)c1 [Example 197-3]	> 7.00
CNCC(O)COc1cccc(-c2nc(NC3CCCN(S(C)(=O)=O)C3)c(C)c(-c3c(C)noc3C)n2)c1 (centres unmarked) [Example 198-1a]	> 7.00
CNC[C@@H](O)COc1ccc(Cl)c(-c2nc(N[C@H]3CO[C@H](C)C3)c(C)c(-c3c(C)noc3C)n2)c1 [Example 198-3]	> 7.00
CNCC(O)COc1cccc(-c2nc(-c3c(C)noc3C)c(C)c(N3C[C@H](C)O[C@@H](C)C3)n2)c1 (some centres unmarked) [Example 199-1a]	> 7.00
CNC[C@@H](O)COc1ccc(Cl)c(-c2nc(-c3c(C)noc3C)c(C)c(N3CCc4ncccc43)n2)c1 [Example 199-3]	> 7.00
CNCC(O)COc1cccc(-c2nc(-c3c(C)noc3C)c(C)c(N3CCOC(C)(C)C3)n2)c1 (centres unmarked) [Example 200-1a]	> 7.00
CNC[C@@H](O)COc1ccc(C(F)(F)F)c(-c2nc(NC3CCOCC3)c(C)c(-c3c(C)noc3C)n2)c1 [Example 200-3]	> 7.00
CNCC(O)COc1cccc(-c2nc(NC3CCCN(C(=O)OC)C3)c(C)c(-c3c(C)noc3C)n2)c1 (centres unmarked) [Example 201-1a]	> 7.00
CNC[C@@H](O)COc1ccc(Cl)c(-c2nc(N[C@H]3CO[C@H](C)C3)c(Cl)c(-c3c(C)noc3C)n2)c1 [Example 201-3]	> 7.00
CNCC(O)COc1cccc(-c2nc(NC3CCN(C(=O)OC)CC3)c(Cl)c(-c3c(C)noc3C)n2)c1 (centres unmarked) [Example 202-1a]	> 7.00
CNC[C@@H](O)COc1ccc(Cl)c(-c2nc(N[C@H]3CN(C(=O)OC)C[C@@H]3F)c(C)c(-c3c(C)noc3C)n2)c1 [Example 202-3]	> 7.00
CNCC(O)COc1cccc(-c2nc(NC3CCCN(CC(F)F)C3)c(C)c(-c3c(C)noc3C)n2)c1 (centres unmarked) [Example 203-1a]	> 7.00
CNC[C@@H](O)COc1ccc(Cl)c(-c2nc(N[C@H]3CN(C4CC4)C[C@@H]3F)c(C)c(-c3c(C)noc3C)n2)c1 [Example 203-3]	> 7.00
CCS(=O)(=O)N1CCCC(Nc2nc(-c3cccc(OCC(O)CNC)c3)nc(-c3c(C)noc3C)c2C)C1 (centres unmarked) [Example 204-1a]	> 7.00
